Our source for the IC50 values is US20250163104A1, “MACROCYCLIC IMMUNOMODULATORS” (priority 2021, published 2025).

Structures are written as SMILES. Where a SMILES comes first, the peptide text is derived from it. Bridges are numbered along the chain shown (N, C = ends). [ ]: non-standard residue; d: D form. Phe(4-NO2) = N[C@@H](Cc1ccc([N+](=O)[O-])cc1)C(=O)O; Phe(4-CF3) = N[C@@H](Cc1ccc(C(F)(F)F)cc1)C(=O)O; Phe(4-tBu) = CC(C)(C)c1ccc(C[C@H](N)C(=O)O)cc1; Bip = N[C@@H](Cc1ccc(-c2ccccc2)cc1)C(=O)O; Phe(4-NH2) = Nc1ccc(C[C@H](N)C(=O)O)cc1; Phe(3-Me) = Cc1cccc(C[C@H](N)C(=O)O)c1; Phe(4-Me) = Cc1ccc(C[C@H](N)C(=O)O)cc1; Cha = N[C@@H](CC1CCCCC1)C(=O)O; Cit = NC(=O)NCCC[C@H](N)C(=O)O; Orn = NCCC[C@H](N)C(=O)O; Dab = NCC[C@H](N)C(=O)O; Dap = NC[C@H](N)C(=O)O

In this experiment the target is T1, human PD-1 / PD-L1-Ig binding on Jurkat cell line over-expressing human PD-1 (Jurkat-PD-1) (Homo sapiens, UniProt Q15116).
T1 construct: expressed in transfected cells; host or cells: Jurkat
T1 sequence (Q15116 25-288): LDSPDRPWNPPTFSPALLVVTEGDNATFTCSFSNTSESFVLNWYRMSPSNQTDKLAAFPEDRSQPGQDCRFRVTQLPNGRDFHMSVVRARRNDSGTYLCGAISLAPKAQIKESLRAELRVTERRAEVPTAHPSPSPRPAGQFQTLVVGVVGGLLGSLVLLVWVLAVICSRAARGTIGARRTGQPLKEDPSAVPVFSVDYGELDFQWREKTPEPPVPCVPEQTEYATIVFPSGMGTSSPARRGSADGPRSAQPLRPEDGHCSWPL
The experiment is described as follows: Jurkat-PD-1 Cell Binding High-Content Screening Assay (CBA). The format is cell-based. As to conditions: Jurkat-PD-1 cells, PE-labeled PD-L1-Ig 20 nM final; read-out: Jurkat HPD1_PDL1 IC50. The procedure, abridged: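 PE-PD-L1-Ig 20 nM final; cells in DMEM/10% FCS; cpd pre-incubation 2 h, 37° C; ligand 1 h; PFA fix + Hoechst 33342; high-content imaging read-out.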
As for `CC(C)C[C@H]1NC(=O)[C@H](CCCN)NC(=O)[C@H](CCCNC(N)=O)NC(=O)[C@H](Cc2ccc(-c3ccccc3)cc2)NC(=O)[C@H](C(C)C)NC(=O)[C@H](Cc2c[nH]c3ccccc23)NC(=O)[C@H](CC(=O)O)NC(=O)[C@H](Cc2ccc(N)cc2)NC(=O)[C@H](CN)NC(=O)CSC[C@@H](C(=O)N[C@@H](C)C(N)=O)NC(=O)[C@H]([C@@H](C)O)NC(=O)[C@H](C(C)C)NC(=O)[C@H](CC2CCCCC2)NC(=O)[C@H](CCN)NC1=O` [Compound 2105] ({CH2CO}-[Dap][Phe(4-NH2)]DWV[Bip][Cit][Orn][dL][Dab][Cha]VTCA-NH2; thioether N-14), the IC50 is 6.8 nM. For `CC(C)C[C@H]1NC(=O)[C@H](CCCN)NC(=O)[C@H](CCCNC(N)=O)NC(=O)[C@H](Cc2ccc(-c3ccccc3)cc2)NC(=O)[C@H](C(C)C)NC(=O)[C@H](Cc2c[nH]c3ccccc23)NC(=O)[C@H](CC(=O)O)NC(=O)[C@H](Cc2ccc(C(C)(C)C)cc2)NC(=O)[C@H](CN)NC(=O)CSC[C@@H](C(=O)N[C@@H](C)C(N)=O)NC(=O)[C@H]([C@@H](C)O)NC(=O)[C@H](C(C)C)NC(=O)[C@H](CC2CCCCC2)NC(=O)[C@H](CCN)NC1=O` [Compound 2106] ({CH2CO}-[Dap][Phe(4-tBu)]DWV[Bip][Cit][Orn][dL][Dab][Cha]VTCA-NH2; thioether N-14), the IC50 stood at 93.4 nM.

Take `CC(C)C[C@H]1NC(=O)[C@H](CCCN)NC(=O)[C@H](CCCNC(N)=O)NC(=O)[C@H](Cc2ccc(-c3ccccc3)cc2)NC(=O)[C@H](C(C)C)NC(=O)[C@H](Cc2c[nH]c3ccccc23)NC(=O)[C@H](CC(=O)O)NC(=O)[C@H](Cc2ccc(C(F)(F)F)cc2)NC(=O)[C@H](CN)NC(=O)CSC[C@@H](C(=O)N[C@@H](C)C(N)=O)NC(=O)[C@H]([C@@H](C)O)NC(=O)[C@H](C(C)C)NC(=O)[C@H](CC2CCCCC2)NC(=O)[C@H](CCN)NC1=O` [Compound 2107] ({CH2CO}-[Dap][Phe(4-CF3)]DWV[Bip][Cit][Orn][dL][Dab][Cha]VTCA-NH2; thioether N-14): the 50% inhibitory concentration (IC50) amounted to 44.7 nM. As for `Cc1ccc(C[C@@H]2NC(=O)[C@H](CN)NC(=O)CSC[C@@H](C(=O)N[C@@H](C)C(N)=O)NC(=O)[C@H]([C@@H](C)O)NC(=O)[C@H](C(C)C)NC(=O)[C@H](CC3CCCCC3)NC(=O)[C@H](CCN)NC(=O)[C@@H](CC(C)C)NC(=O)[C@H](CCCN)NC(=O)[C@H](CCCNC(N)=O)NC(=O)[C@H](Cc3ccc(-c4ccccc4)cc3)NC(=O)[C@H](C(C)C)NC(=O)[C@H](Cc3c[nH]c4ccccc34)NC(=O)[C@H](CC(=O)O)NC2=O)cc1` [Compound 2108] ({CH2CO}-[Dap][Phe(4-Me)]DWV[Bip][Cit][Orn][dL][Dab][Cha]VTCA-NH2; thioether N-14), the figure is 19.9 nM; as for `Cc1cccc(C[C@@H]2NC(=O)[C@H](CN)NC(=O)CSC[C@@H](C(=O)N[C@@H](C)C(N)=O)NC(=O)[C@H]([C@@H](C)O)NC(=O)[C@H](C(C)C)NC(=O)[C@H](CC3CCCCC3)NC(=O)[C@H](CCN)NC(=O)[C@@H](CC(C)C)NC(=O)[C@H](CCCN)NC(=O)[C@H](CCCNC(N)=O)NC(=O)[C@H](Cc3ccc(-c4ccccc4)cc3)NC(=O)[C@H](C(C)C)NC(=O)[C@H](Cc3c[nH]c4ccccc34)NC(=O)[C@H](CC(=O)O)NC2=O)c1` [Compound 2109] ({CH2CO}-[Dap][Phe(3-Me)]DWV[Bip][Cit][Orn][dL][Dab][Cha]VTCA-NH2; thioether N-14), 38.5 nM; as for `CC(C)C[C@H]1NC(=O)[C@H](CCCN)NC(=O)[C@H](CCCNC(N)=O)NC(=O)[C@H](Cc2ccc(-c3ccccc3)cc2)NC(=O)[C@H](C(C)C)NC(=O)[C@H](Cc2c[nH]c3ccccc23)NC(=O)[C@H](CC(=O)O)NC(=O)[C@H](Cc2ccc([N+](=O)[O-])cc2)NC(=O)[C@H](CN)NC(=O)CSC[C@@H](C(=O)N[C@@H](C)C(N)=O)NC(=O)[C@H]([C@@H](C)O)NC(=O)[C@H](C(C)C)NC(=O)[C@H](CC2CCCCC2)NC(=O)[C@H](CCN)NC1=O` [Compound 2110] ({CH2CO}-[Dap][Phe(4-NO2)]DWV[Bip][Cit][Orn][dL][Dab][Cha]VTCA-NH2; thioether N-14), 18.2 nM.

For orientation: IC50 means the midpoint of a concentration-inhibition curve.
